System: patients with ALK-positive NSCLC
Assay: Phase 1 safety assessment (TRAEs by CTCAE 4.03, DLT, MTD, RP2D)
Assay type: in vivo, human
Method: In the dose-escalation phase, the dose was escalated sequentially from a low to a high level with a 3 + 3 dose-escalation scheme based on the modified Fibonacci method. The starting dose for conteltinib was 50 mg orally quaque die (QD). Dose escalation proceeded to the next six cohorts of 100 mg, 200 mg, 300 mg, 450 mg, 600 mg, and 800 mg QD. For each dose, there was a PK lead-in phase where a single dose was given 7 days before cycle 1 day 1. Then, each dose was taken continuously in a 28-day cycle. The first cycle was for dose-limiting toxicity (DLT) investigation. When one of three patients experienced a DLT in a dose cohort, three additional patients were enrolled in the same dose cohort to assess the dose level in a total of six patients. All patients received conteltinib until disease progression, unacceptable toxicity, or withdrawal of consent. Patients received follow-up safety assessments for 30 days (±7 days) after the last conteltinib dose.
In the dose-expansion phase, each dose was taken continuously in a 28-day cycle. At the end of each cycle, a safety evaluation was conducted. If patients met the criteria to enter the next cycle, treatment with conteltinib was continued for subsequent cycles. All patients received conteltinib until disease progression, unacceptable toxicity, or withdrawal of consent. Patients received follow-up safety assessments for 30 days (±7 days) after the last dose of conteltinib.
The safety of conteltinib was assessed in safety set (SS) which was based on the National Cancer Institute Common Terminology Criteria for Adverse Events (CTCAE) version 4.03, laboratory tests, vital signs, ECG, and clinical observations. […] Adverse events (AEs) were judged to be treatment-related or not by investigators.
DLTs were AEs occurring in the first cycle of treatment (28 days) that were attributed to conteltinib, and the criteria were grade 4 neutropenia lasting ≥ 7 days, febrile neutropenia, grade 3 thrombocytopenia, grade 3 non-hematologic toxicity, and any conteltinib-related toxicity resulting in treatment delay > 2 weeks or discontinuation of conteltinib treatment at the assigned dose level. Besides, grade 3 nausea, vomiting, or diarrhea for ≥ 3 days or grade 4 nausea, vomiting, or diarrhea of any duration was considered as a DLT. The MTD was defined as the dose of conteltinib that would be closest to but not higher than a 33% probability of a DLT.

For `COc1cc(N2CCC(N3CCN(C)CC3)CC2)ccc1Nc1nc2c(c(Nc3ccccc3S(=O)(=O)NC(C)C)n1)CCN2` [Conteltinib], the “TRAE Abdominal pain” value (200 mg QD (n=3), Grade ≥ 3) was 0 (0.0) n (%), the “TRAE Abdominal pain upper” value (200 mg QD (n=3), Grade ≥ 3) was 0 (0.0) n (%) and the “TRAE Appetite decreased” value (200 mg QD (n=3), Grade ≥ 3) was 0 (0.0) n (%). The “TRAE Conjugated bilirubin elevated” value (200 mg QD (n=3), Grade ≥ 3) was 0 (0.0) n (%), the “TRAE Diarrhea” value (200 mg QD (n=3), Grade ≥ 3) was 0 (0.0) n (%) and the “TRAE Hypercholesterolemia” value (200 mg QD (n=3), Grade ≥ 3) was 0 (0.0) n (%). For the same compound, the “TRAE Hyperglycemia” value (200 mg QD (n=3), Grade ≥ 3) was 0 (0.0) n (%), the “TRAE Hypertriglyceridemia” value (200 mg QD (n=3), Grade ≥ 3) was 0 (0.0) n (%) and the “TRAE Hyperuricemia” value (200 mg QD (n=3), Grade ≥ 3) was 0 (0.0) n (%). The “TRAE Hypoalbuminemia” value (200 mg QD (n=3), Grade ≥ 3) was 0 (0.0) n (%), the “TRAE Nausea” value (200 mg QD (n=3), Grade ≥ 3) was 0 (0.0) n (%) and the “TRAE Proteinuria” value (200 mg QD (n=3), Grade ≥ 3) was 0 (0.0) n (%). For the same compound, the “TRAE Serum creatinine elevated” value (200 mg QD (n=3), Grade ≥ 3) was 0 (0.0) n (%), the “TRAE Vomiting” value (200 mg QD (n=3), Grade ≥ 3) was 0 (0.0) n (%) and the “TRAE Weight loss” value (200 mg QD (n=3), Grade ≥ 3) was 0 (0.0) n (%). For the same compound, the “TRAE γ-GGT elevated” value (200 mg QD (n=3), Grade ≥ 3) was 0 (0.0) n (%), the “Patients with any TRAE” value (300 mg BID (n=12), Grade 1–2) was 10 (83.3) n (%) and the “TRAE ALT elevated” value (300 mg BID (n=12), Grade 1–2) was 3 (25.0) n (%). For the same compound, the “TRAE AST elevated” value (300 mg BID (n=12), Grade 1–2) was 3 (25.0) n (%), the “TRAE Abdominal pain” value (300 mg BID (n=12), Grade 1–2) was 2 (16.7) n (%) and the “TRAE Abdominal pain upper” value (300 mg BID (n=12), Grade 1–2) was 3 (25.0) n (%). For the same compound, the “TRAE Appetite decreased” value (300 mg BID (n=12), Grade 1–2) was 2 (16.7) n (%), the “TRAE Conjugated bilirubin elevated” value (300 mg BID (n=12), Grade 1–2) was 1 (8.3) n (%) and the “TRAE Diarrhea” value (300 mg BID (n=12), Grade 1–2) was 8 (66.7) n (%). The “TRAE Hypercholesterolemia” value (300 mg BID (n=12), Grade 1–2) was 0 (0.0) n (%), the “TRAE Hyperglycemia” value (300 mg BID (n=12), Grade 1–2) was 0 (0.0) n (%) and the “TRAE Hypertriglyceridemia” value (300 mg BID (n=12), Grade 1–2) was 1 (8.3) n (%). The “TRAE Hyperuricemia” value (300 mg BID (n=12), Grade 1–2) was 2 (16.7) n (%), the “TRAE Hypoalbuminemia” value (300 mg BID (n=12), Grade 1–2) was 4 (33.3) n (%) and the “TRAE Nausea” value (300 mg BID (n=12), Grade 1–2) was 4 (33.3) n (%). The “TRAE Proteinuria” value (300 mg BID (n=12), Grade 1–2) was 3 (25.0) n (%), the “TRAE Serum creatinine elevated” value (300 mg BID (n=12), Grade 1–2) was 5 (41.7) n (%) and the “TRAE Vomiting” value (300 mg BID (n=12), Grade 1–2) was 2 (16.7) n (%). For the same compound, the “TRAE Weight loss” value (300 mg BID (n=12), Grade 1–2) was 2 (16.7) n (%), the “TRAE γ-GGT elevated” value (300 mg BID (n=12), Grade 1–2) was 3 (25.0) n (%) and the “Patients with any TRAE” value (300 mg BID (n=12), Grade ≥ 3) was 1 (8.3) n (%). For the same compound, the “TRAE ALT elevated” value (300 mg BID (n=12), Grade ≥ 3) was 0 (0.0) n (%), the “TRAE AST elevated” value (300 mg BID (n=12), Grade ≥ 3) was 0 (0.0) n (%) and the “TRAE Abdominal pain” value (300 mg BID (n=12), Grade ≥ 3) was 0 (0.0) n (%). The “TRAE Abdominal pain upper” value (300 mg BID (n=12), Grade ≥ 3) was 0 (0.0) n (%), the “TRAE Appetite decreased” value (300 mg BID (n=12), Grade ≥ 3) was 0 (0.0) n (%) and the “TRAE Conjugated bilirubin elevated” value (300 mg BID (n=12), Grade ≥ 3) was 1 (8.3) n (%). The “TRAE Diarrhea” value (300 mg BID (n=12), Grade ≥ 3) was 0 (0.0) n (%), the “TRAE Hypercholesterolemia” value (300 mg BID (n=12), Grade ≥ 3) was 0 (0.0) n (%) and the “TRAE Hyperglycemia” value (300 mg BID (n=12), Grade ≥ 3) was 0 (0.0) n (%). For the same compound, the “TRAE Hypertriglyceridemia” value (300 mg BID (n=12), Grade ≥ 3) was 0 (0.0) n (%), the “TRAE Hyperuricemia” value (300 mg BID (n=12), Grade ≥ 3) was 0 (0.0) n (%) and the “TRAE Hypoalbuminemia” value (300 mg BID (n=12), Grade ≥ 3) was 0 (0.0) n (%). The “TRAE Nausea” value (300 mg BID (n=12), Grade ≥ 3) was 0 (0.0) n (%), the “TRAE Proteinuria” value (300 mg BID (n=12), Grade ≥ 3) was 0 (0.0) n (%) and the “TRAE Serum creatinine elevated” value (300 mg BID (n=12), Grade ≥ 3) was 0 (0.0) n (%). For the same compound, the “TRAE Vomiting” value (300 mg BID (n=12), Grade ≥ 3) was 0 (0.0) n (%), the “TRAE Weight loss” value (300 mg BID (n=12), Grade ≥ 3) was 0 (0.0) n (%) and the “TRAE γ-GGT elevated” value (300 mg BID (n=12), Grade ≥ 3) was 1 (8.3) n (%). The “Patients with any TRAE” value (300 mg QD (n=3), Grade 1–2) was 3 (100) n (%), the “TRAE AST elevated” value (300 mg QD (n=3), Grade 1–2) was 1 (33.3) n (%) and the “TRAE Abdominal pain” value (300 mg QD (n=3), Grade 1–2) was 0 (0.0) n (%). For the same compound, the “TRAE Abdominal pain upper” value (300 mg QD (n=3), Grade 1–2) was 0 (0.0) n (%), the “TRAE Appetite decreased” value (300 mg QD (n=3), Grade 1–2) was 0 (0.0) n (%) and the “TRAE Conjugated bilirubin elevated” value (300 mg QD (n=3), Grade 1–2) was 0 (0.0) n (%). For the same compound, the “TRAE Diarrhea” value (300 mg QD (n=3), Grade 1–2) was 3 (100) n (%), the “TRAE Hypercholesterolemia” value (300 mg QD (n=3), Grade 1–2) was 1 (33.3) n (%) and the “TRAE Hyperglycemia” value (300 mg QD (n=3), Grade 1–2) was 1 (33.3) n (%). For the same compound, the “TRAE Hypertriglyceridemia” value (300 mg QD (n=3), Grade 1–2) was 1 (33.3) n (%), the “TRAE Hyperuricemia” value (300 mg QD (n=3), Grade 1–2) was 0 (0.0) n (%) and the “TRAE Hypoalbuminemia” value (300 mg QD (n=3), Grade 1–2) was 1 (33.3) n (%). For the same compound, the “TRAE Nausea” value (300 mg QD (n=3), Grade 1–2) was 1 (33.3) n (%), the “TRAE Proteinuria” value (300 mg QD (n=3), Grade 1–2) was 0 (0.0) n (%) and the “TRAE Serum creatinine elevated” value (300 mg QD (n=3), Grade 1–2) was 1 (33.3) n (%). For the same compound, the “TRAE Vomiting” value (300 mg QD (n=3), Grade 1–2) was 1 (33.3) n (%), the “TRAE Weight loss” value (300 mg QD (n=3), Grade 1–2) was 3 (100) n (%) and the “TRAE γ-GGT elevated” value (300 mg QD (n=3), Grade 1–2) was 0 (0.0) n (%). The “Patients with any TRAE” value (300 mg QD (n=3), Grade ≥ 3) was 0 (0.0) n (%), the “TRAE ALT elevated” value (300 mg QD (n=3), Grade ≥ 3) was 0 (0.0) n (%) and the “TRAE AST elevated” value (300 mg QD (n=3), Grade ≥ 3) was 0 (0.0) n (%). For the same compound, the “TRAE Abdominal pain” value (300 mg QD (n=3), Grade ≥ 3) was 0 (0.0) n (%), the “TRAE Abdominal pain upper” value (300 mg QD (n=3), Grade ≥ 3) was 0 (0.0) n (%) and the “TRAE Appetite decreased” value (300 mg QD (n=3), Grade ≥ 3) was 0 (0.0) n (%). The “TRAE Conjugated bilirubin elevated” value (300 mg QD (n=3), Grade ≥ 3) was 0 (0.0) n (%), the “TRAE Diarrhea” value (300 mg QD (n=3), Grade ≥ 3) was 0 (0.0) n (%) and the “TRAE Hypercholesterolemia” value (300 mg QD (n=3), Grade ≥ 3) was 0 (0.0) n (%). For the same compound, the “TRAE Hyperglycemia” value (300 mg QD (n=3), Grade ≥ 3) was 0 (0.0) n (%), the “TRAE Hypertriglyceridemia” value (300 mg QD (n=3), Grade ≥ 3) was 0 (0.0) n (%) and the “TRAE Hyperuricemia” value (300 mg QD (n=3), Grade ≥ 3) was 0 (0.0) n (%). The “TRAE Hypoalbuminemia” value (300 mg QD (n=3), Grade ≥ 3) was 0 (0.0) n (%), the “TRAE Nausea” value (300 mg QD (n=3), Grade ≥ 3) was 0 (0.0) n (%) and the “TRAE Proteinuria” value (300 mg QD (n=3), Grade ≥ 3) was 0 (0.0) n (%). For the same compound, the “TRAE Serum creatinine elevated” value (300 mg QD (n=3), Grade ≥ 3) was 0 (0.0) n (%), the “TRAE Vomiting” value (300 mg QD (n=3), Grade ≥ 3) was 0 (0.0) n (%) and the “TRAE Weight loss” value (300 mg QD (n=3), Grade ≥ 3) was 0 (0.0) n (%). For the same compound, the “TRAE γ-GGT elevated” value (300 mg QD (n=3), Grade ≥ 3) was 0 (0.0) n (%), the “Patients with any TRAE” value (450 mg QD (n=14), Grade 1–2) was 14 (100) n (%) and the “TRAE ALT elevated” value (450 mg QD (n=14), Grade 1–2) was 10 (71.4) n (%). For the same compound, the “TRAE AST elevated” value (450 mg QD (n=14), Grade 1–2) was 9 (64.3) n (%), the “TRAE Abdominal pain” value (450 mg QD (n=14), Grade 1–2) was 5 (35.7) n (%) and the “TRAE Abdominal pain upper” value (450 mg QD (n=14), Grade 1–2) was 5 (35.7) n (%). For the same compound, the “TRAE Appetite decreased” value (450 mg QD (n=14), Grade 1–2) was 2 (14.3) n (%), the “TRAE Conjugated bilirubin elevated” value (450 mg QD (n=14), Grade 1–2) was 2 (14.3) n (%) and the “TRAE Diarrhea” value (450 mg QD (n=14), Grade 1–2) was 13 (92.9) n (%).

— publication PMC9694544, “Conteltinib (CT-707) in patients with advanced ALK-positive non-small cell lung cancer: a multicenter, open-label, first-in-human phase 1 study” (BMC Medicine, 2022)
